Earlier results on 1 compound are cited in patent US20090298708A1, “2'-DEOXY-2'-FLUORO-BETA-D-ARABINONUCLEOSIDE 5'-TRIPHOSPHATES AND THEIR USE IN ENZYMATIC NUCLEIC ACID SYNTHESIS” (priority 2006, published 2009).

pKi: −log10 of the molar value.

The target of this data set is T1, DNA pol-γ (Homo sapiens, UniProt P54098).
T1 sequence (P54098 1-1239): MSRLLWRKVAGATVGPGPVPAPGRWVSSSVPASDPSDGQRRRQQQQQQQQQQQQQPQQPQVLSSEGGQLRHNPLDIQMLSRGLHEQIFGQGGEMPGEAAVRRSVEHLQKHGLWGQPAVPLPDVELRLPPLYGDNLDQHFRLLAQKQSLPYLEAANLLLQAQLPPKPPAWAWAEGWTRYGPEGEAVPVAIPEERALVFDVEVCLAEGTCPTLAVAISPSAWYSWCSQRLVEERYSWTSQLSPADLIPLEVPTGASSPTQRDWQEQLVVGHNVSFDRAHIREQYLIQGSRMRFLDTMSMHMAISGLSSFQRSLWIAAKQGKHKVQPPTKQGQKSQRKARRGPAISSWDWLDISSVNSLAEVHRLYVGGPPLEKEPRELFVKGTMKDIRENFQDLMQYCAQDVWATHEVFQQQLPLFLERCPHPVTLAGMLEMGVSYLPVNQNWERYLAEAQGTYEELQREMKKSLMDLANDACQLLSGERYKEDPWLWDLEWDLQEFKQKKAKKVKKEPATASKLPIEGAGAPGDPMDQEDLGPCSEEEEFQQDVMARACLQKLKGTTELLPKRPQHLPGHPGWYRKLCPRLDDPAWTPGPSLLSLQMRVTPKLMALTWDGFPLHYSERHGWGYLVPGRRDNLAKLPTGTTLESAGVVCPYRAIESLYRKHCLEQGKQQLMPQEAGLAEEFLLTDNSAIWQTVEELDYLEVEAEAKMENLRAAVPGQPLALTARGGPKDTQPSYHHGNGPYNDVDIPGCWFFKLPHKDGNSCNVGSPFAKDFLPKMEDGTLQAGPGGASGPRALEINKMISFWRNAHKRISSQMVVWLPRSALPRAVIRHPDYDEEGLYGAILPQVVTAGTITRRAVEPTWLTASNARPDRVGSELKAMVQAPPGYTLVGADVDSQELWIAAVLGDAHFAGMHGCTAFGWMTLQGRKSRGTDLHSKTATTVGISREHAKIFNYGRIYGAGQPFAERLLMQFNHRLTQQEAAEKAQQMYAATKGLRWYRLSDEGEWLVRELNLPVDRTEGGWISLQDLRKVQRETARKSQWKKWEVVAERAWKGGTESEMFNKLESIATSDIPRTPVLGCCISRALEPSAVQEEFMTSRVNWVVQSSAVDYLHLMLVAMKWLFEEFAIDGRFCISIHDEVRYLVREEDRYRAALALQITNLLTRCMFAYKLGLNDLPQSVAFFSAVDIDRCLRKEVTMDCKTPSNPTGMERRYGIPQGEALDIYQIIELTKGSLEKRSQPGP
The following applies: Lewis W. et al. (1994) Biochemistry, 33, 14620-14624; read-out: inhibition constant (Ki) with DNA pol-γ; cited from earlier work.

For `O=c1[nH]c(=O)n(C2OC(COP(=O)(O)OP(=O)(O)OP(=O)(O)O)C(O)C2F)cc1I` (stereo not shown) [FIAU 5′-TP], the pKi (usually −log10 of the Ki, conventionally taken in molar units) was 7.40.
